{
  "source": "patent US20260193668A1",
  "about": "“NOVEL PEPTIDES AND USE THEREOF FOR MODULATING PROTEIN ACCUMULATION” (UNIVERSITE TOULOUSE III - PAUL SABATIER, priority 2022, published 2026)",
  "key": {"[1]": {"system": "A. thaliana seedlings", "assay": "Length of primary roots of A. thaliana seedlings treated with cPEP", "format": "in vivo, Arabidopsis thaliana", "conditions": "versus Scrambled cPEPdcl1", "method": "(§1) (a, b) Length of primary roots of A. thaliana seedlings treated with a Scrambled cPEPdcl1 or with a cPEPdcl1. (c) Relative chlorophyll content of A. thaliana seedlings treated with the corresponding peptide. (d) Resumption of growth of A. thaliana seedlings after heat shock at 45° C. for 45 min and treated with the corresponding peptide. (e) Relative lesion area of A. thaliana seedlings infected with B. cinerea and treated with the indicated peptide. (f) Measurement of the flowering day of A. thaliana plants treated with the indicated peptides. (g, h) Flowering day of A. thaliana plants treated with an irrelevant peptide or a mixture of cPEPs (targeting EIN2, BR11, BAK1 and WUS). (i, j) Leaf area of A. thaliana plants treated with an irrelevant peptide or a mixture of cPEPs (targeting EIN2, BR11, BAK1 and WUS).\nThe work then focused on different A. thaliana proteins involved in different plant functions. […] 12:479-492, 2000), improved the viability of seedlings to heat shock (FIG. 7d). In parallel, several A. thaliana plant defence regulators were targeted, namely AGB1 (SEQ ID NO: 195), MAPKKK3 (SEQ ID NO: 187), JAR1 (SEQ ID NO: 192), MAPKKK5 (SEQ ID NO: 188), ABCG34 (SEQ ID NO: 194) and CPK3 (SEQ ID NO: 162). […] Next, several cPEPs were designed targeting different proteins involved in plant development by measuring the day of flowering. […]"}, "[2]": {"system": "EIN2", "assay": "Quantification of EIN2 by Western blot in A. thaliana leaves", "format": "in vivo, Arabidopsis thaliana", "conditions": "A. thaliana leaves treated for 5 days with 100 μM peptide", "method": "(§2) (a) Schematic representation of a gene encoding altORFs producing altPEPs. (b) ORF ranking distribution of altPEPs detected by MS. (c) Frequency of altPEPs detected by MS by length ranges. (d) Main root length of A. thaliana seedlings treated with 100 μM peptide for 4 days. (e, f) Quantification of DCL1 expression by RT-qPCR (e) and Western blot using anti-DCL1 antibodies (f) in A. thaliana leaves treated for 5 days with 100 μM peptide. (g, h) Quantification of COI1, AP2, CPK3 (g) and EIN2 (h) by Western blot using specific antibodies in A. thaliana leaves treated for 5 days with 100 μM peptide.\n(§3) N. benthamiana plants were treated by spraying the leaves 24 h before harvesting. For Luc assays, 100 μL of MS/2 liquid medium containing the peptides was added to each well. 5 μL of luciferin was added and luciferase activity was read 30 min later using a spectrophotometer. All other assays were performed by spraying or watering the plants. To quantify the protein level induced by cPEPs in Arabidopsis, rosettes were sprayed daily with 100 μM of peptide or its control for 5 days. Leaves were harvested 6 h after the last treatment for western blot analysis. […] Chlorophyll content was measured using the SPAD chlorophylometer (Konica Minolta). Leaf area was measured using ImageJ software. […]"}, "[3]": {"system": "EIN2 mRNA", "assay": "Quantification by qRT PCR of EIN2 expression in treated plants", "format": "in vivo, Arabidopsis thaliana", "conditions": "100 μM peptide", "method": "(§4) Quantification by qRT PCR of the expression of different genes in response to 100 μM of different peptides\n(§5) (a) Treatment of plants with the peptide AtCOI1alt1; (b) Treatment of plants with the peptide AtAP2alt1; (c) Treatment of plants with the peptide AtEIN2alt1 (d) Treatment of plants with the peptide AtCPK3alt1.\n(§6) Quantification of mRNAs was performed by qRT-PCR using appropriate primer pairs selected from the sequences: SEQ ID NOs: 367 to 374. Expression levels for the controls were set at 100. The primers used for the A. euteiches assays are described in Camborde et al (New Phytol. 233:2232-2248. 2022)."}, "[4]": {"system": "A. thaliana seedlings", "assay": "Main root length of A. thaliana seedlings treated with altPEP", "format": "in vivo, Arabidopsis thaliana", "conditions": "A. thaliana seedlings treated with 100 μM peptide for 4 days", "method": "as §2\nTo study the biological roles of altPEPs, two types of altPEPs were studied: one well conserved among Brassicaceae, and corresponding to the altORF18 of the DCL1 gene (FIG. 3c), and another, corresponding to the first altORF of the COI1 gene, but not conserved among Brassicaceae. A. thaliana seedlings were treated with the peptide AtDCL1alt18 (SEQ ID NO: 224) and root development analysed, since dcl mutants show longer main roots (Park, W., et al. Curr. Biol. 12, 1484-1495 (2002))."}, "[5]": {"system": "DCL1 mRNA", "assay": "Quantification of DCL1 expression by RT-qPCR in A. thaliana leaves", "format": "in vivo, Arabidopsis thaliana", "conditions": "A. thaliana leaves treated for 5 days with 100 μM peptide", "method": "as §2, §6\nN. benthamiana plants were treated by spraying the leaves 24 h before harvesting. […] 5 μL of luciferin was added and luciferase activity was read 30 min later using a spectrophotometer. […] To quantify the protein level induced by cPEPs in Arabidopsis, rosettes were sprayed daily with 100 μM of peptide or its control for 5 days. […] Chlorophyll content was measured using the SPAD chlorophylometer (Konica Minolta). Leaf area was measured using ImageJ software. […]"}, "[6]": {"system": "DCL1", "assay": "Western blot using anti-DCL1 antibodies in A. thaliana leaves", "format": "in vivo, Arabidopsis thaliana", "conditions": "A. thaliana leaves treated for 5 days with 100 μM peptide", "method": "as §2, §3"}, "[7]": {"system": "A. thaliana seedlings", "assay": "Heat shock resistance test on A. thaliana seedlings", "format": "in vivo, Arabidopsis thaliana", "conditions": "100 μM peptide, 45° C. for 45 min", "method": "as §1\nN. benthamiana plants were treated by spraying the leaves 24 h before harvesting. For Luc assays, 100 μL of MS/2 liquid medium containing the peptides was added to each well. 5 μL of luciferin was added and luciferase activity was read 30 min later using a spectrophotometer. […] To quantify the protein level induced by cPEPs in Arabidopsis, rosettes were sprayed daily with 100 μM of peptide or its control for 5 days. […] Chlorophyll content was measured using the SPAD chlorophylometer (Konica Minolta). Leaf area was measured using ImageJ software. […]"}, "[8]": {"system": "AP2", "assay": "Quantification of AP2 by Western blot in A. thaliana leaves", "format": "in vivo, Arabidopsis thaliana", "conditions": "A. thaliana leaves treated for 5 days with 100 μM peptide", "method": "as §2, §3"}, "[9]": {"system": "AP2 mRNA", "assay": "Quantification by qRT PCR of AP2 expression in treated plants", "format": "in vivo, Arabidopsis thaliana", "conditions": "100 μM peptide", "method": "as §4, §5, §6"}, "[10]": {"system": "M. truncatula roots", "assay": "Quantification of nodules on M. truncatula roots", "format": "in vivo, Medicago truncatula", "conditions": "versus irrelevant peptide", "source_text": "(a) FRET-FLIM analysis of the interaction between cPEPnsp1-FAM and NSP1 (left) or NSP1ΔcPEP (right) in planta. (b) qRT-PCR quantification of NSP1 expression in M. truncatula roots treated with cPEPnsp1 or Scrambled cPEPnsp1. (c) GUS quantification of peptide-treated M. truncatula roots carrying the Pro NSP1-NSP1-GUS fusion. (d, e) Quantification of NSP1 expression in N. benthamiana leaves after infiltration of different constructs: ‘wild type’ i.e. version of NSP1 wherein the cPEP sequence has been deleted (NSP1 ΔcPEP) or version of NSP1 wherein the cPEP sequence has been replaced by an artificial sequence (NSP1 ΔcPEP-cPEPartificial), with an empty vector (control) or cPEPnsp1 or cPEPartificial. (f, g) Formation of lateral roots of M. truncatula WT seedlings, nsp1 or overexpressing NSP1, in response to cPEPnsp1 or Scrambled cPEPnsp1. (h, i) Quantification of nodules on roots of M. truncatula roots treated with an irrelevant peptide or cPEPskl. […]\nIn order to verify whether cPEPs can target any protein, the activity of 12 cPEPs targeting 12 different proteins for which antibodies were available was studied and validated in three different plant species. The question was whether the increase in the quantity of proteins observed after treatment with cPEP was sufficient to modulate plant development. […]"}},
  "data": [
    {"substance": "cPEPdcl1 (SRAFGSVFFSGD; cPEPdcl1)", "values": [
      {"measurement": "primary root growth", "setting": "[1]", "result": "reduction"}
    ]},
    {"substance": "AtEIN2alt1 (MGCKYRRRCSFRV; AtEIN2alt1)", "values": [
      {"measurement": "EIN2 protein level (Western blot)", "setting": "[2]", "result": "increase"},
      {"measurement": "EIN2 mRNA expression (qRT PCR)", "setting": "[3]", "result": "without detecting any change"}
    ]},
    {"substance": "AtDCL1alt18 (MLMLNPPRHHGILQRPTCLSLLLTIRLWNP; AtDCL1alt18)", "values": [
      {"measurement": "root development (main root length)", "setting": "[4]", "result": "decrease in root development"},
      {"measurement": "DCL1 mRNA expression (qRT-PCR)", "setting": "[5]", "result": "no effect"},
      {"measurement": "DCL1 protein accumulation (Western blot)", "setting": "[6]", "result": "increased"}
    ]},
    {"substance": "cPEPhsp101 (MQDMLNSLLCI; cPEPhsp101) [SEQ ID NO: 404, cPEP targeting the A. thaliana HSP101 protein]", "values": [
      {"measurement": "viability of seedlings to heat shock", "setting": "[7]", "result": "improved"}
    ]},
    {"substance": "AtAP2alt1 (MGISYLGLWETSLLRWI; AtAP2alt1)", "values": [
      {"measurement": "AP2 protein level (Western blot)", "setting": "[8]", "result": "increase"},
      {"measurement": "AP2 mRNA expression (qRT PCR)", "setting": "[9]", "result": "without detecting any change"}
    ]},
    {"substance": "cPEPskl (TETVGHEDAS; cPEPskl)", "values": [
      {"measurement": "amount of nodules", "setting": "[10]", "result": "decrease"}
    ]}
  ]
}
